According to US9399623B2, “Quinoline derivatives and their use in neurodegenerative diseases” (Merck Patent GmbH, priority 2014, dated 2016):

Tests used:
[1] = target: T1, P2X7 (Homo sapiens, UniProt Q99572); experiment: Pore permeation assay (YO PRO dye uptake, BzATP-induced); assay type: cell-based; set-up: expressed in transfected cells; host or cells: HEK293; conditions: HEK293 transfected with human P2X7 receptor; YO PRO dye 1 uM, BzATP 10 uM; read-out: hP2X7 IC50
T1 sequence (Q99572 1-595): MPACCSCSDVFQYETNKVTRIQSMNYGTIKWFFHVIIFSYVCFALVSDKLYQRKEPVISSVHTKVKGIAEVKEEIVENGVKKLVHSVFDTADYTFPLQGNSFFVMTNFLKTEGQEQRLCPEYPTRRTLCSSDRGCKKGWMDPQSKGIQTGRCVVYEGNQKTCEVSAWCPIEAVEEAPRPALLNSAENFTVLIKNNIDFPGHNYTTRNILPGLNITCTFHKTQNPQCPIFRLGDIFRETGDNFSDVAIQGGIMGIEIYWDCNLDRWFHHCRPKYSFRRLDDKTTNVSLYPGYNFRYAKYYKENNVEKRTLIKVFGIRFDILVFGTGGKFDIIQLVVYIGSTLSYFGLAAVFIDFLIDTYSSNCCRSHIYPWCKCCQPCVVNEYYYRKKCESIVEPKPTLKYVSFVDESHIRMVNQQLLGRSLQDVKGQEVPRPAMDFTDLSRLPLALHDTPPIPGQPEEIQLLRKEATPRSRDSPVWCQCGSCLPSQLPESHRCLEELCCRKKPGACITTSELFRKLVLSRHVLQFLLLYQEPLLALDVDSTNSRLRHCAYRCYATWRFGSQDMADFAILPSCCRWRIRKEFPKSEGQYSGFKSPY
Procedure: Agonist-induced pore formation was determined by measuring cellular uptake of YO PRO fluorescence dye in HEK293 transfected with human P2X7 receptor. A HEK293 cell over expressing human P2X7 was harvested using HQTase reagent to detach the cells from T75 cm flask. The harvested cells are centrifuged @ 1200 rpm for 5 min at room temperature. The viability of cells was determined by Trypan blue dye and the cells are plated @ 10,000 cell/well in 50 ul volume in a 384 W BD Poly lysine coated plate and incubated overnight at 37 C. After overnight incubation, the culture medium was replaced with 35 ul/well assay buffer (5 mM KCl, 0.1 mM CaCl2, 5 mM Glucose, 10 mM HEPES buffer pH7.4 containing 125 mM NaCl. The serial dilution of compounds was performed using Bravo liquid handling instrument and the compounds were added using Bravo to the cell assay plate starting at 2.5 uM with three dilutions for 10 points. The positive control inhibitor compound was added to column 23. The plate was shaken slowly on a plate shaker for 10 seconds. The cells were incubated with the compound for 20 minutes at room temperature. After the incubation period, YO PRO dye (1 uM) along with BzATP (10 uM) were added to cells at 10 ul/well. The plate was centrifuged at 1000 rpm for 5 seconds and incubated at room temperature for 30 minutes. The uptake of YO PRO dye into the cells was measured using Envision Fluorescence plate reader instrument (Perkin Elmer).

[2] = target: T1, P2X7; experiment: IL-1β release assay in THP-1 cells (sandwich ELISA); assay type: cell-based; set-up: release of mature IL-1β in the culture medium of THP-1 cells; endogenous in cells; host or cells: THP-1 cells (PMA-differentiated, LPS-primed); conditions: PMA, LPS primed, stimulated with 0.8 mM BzATP, mature IL-1β release, read-out: hTHP-1/IL-ib IC50
Procedure: The activation of P2X7 by ATP leads to a fast transient activation of cells resulting in influx of Ca^2+ followed by conversion of pro-IL-1β to active IL-1β. The functional activity of P2X7 compounds was measured by the release of mature IL-1β in the culture medium of THP-1 cells, detected by sandwich ELISA. Cells were maintained in complete growth medium (RPMI 1640+10% HI-FCS+2 mM L-glutamine+1×PS). […] THP-1 cells were harvested from the flask in 50 ml by centrifugation for 3 min at 100 g. The cells were resuspended to 2×10^5 cells/ml in medium supplemented with 0.5 μM PMA and incubated. The cells were washed and resuspended to 1.5×10^5 cells/ml in medium complemented with 10 ng/ml LPS, and the cells were primed for 4 h at 37° C., 5% CO2. After addition of 20 μL of prediluted test compounds, blank, standard and control reagents, cells were incubated for a further 20 min at 37° C. and stimulated with 0.8 mM BzATP for 30 minutes. The cells were centrifuged, supernatant was collected and the presence of mature IL-1β was detected using Dual human IL-1b kit following manufacturer's instruction. The tetrahydrobenzodiazepine analogs effectively modulated the activity of P2X7 in the cells as measured by the levels of pro-inflammatory cytokine IL-1β, which is released by the activation of P2X7 receptor.

IC50 [1] [µM]	IC50 [2] [µM]	SMILES
< 0.01		C[C@H]1CCC[C@@](O)(CNC(=O)c2c(Cl)ccc3nc(N4CCCC4)ccc23)C1 [Compound 2, 6-Chloro-2-pyrrolidin-1-yl-quinoline-5-carboxylic acid ((1S,3S)-1-hydroxy-3-methyl-cyclohexylmethyl)-amide]
> 1		O=C(O)CCNc1ccc2c(C(=O)NCC3CCC(F)(F)CC3)c(Cl)ccc2n1 [Compound 83, 3-{6-Chloro-5-[(4,4-difluorocyclohexylmethyl)-carbamoyl]-quinolin-2-ylamino}-propionic acid]
< 0.01		CC1CCCC(O)(CNC(=O)c2c(Cl)ccc3nc(N4CC[C@@H](N(C)C)C4)ccc23)C1 (stereo partly shown) [Compound 14]
0.01 to 0.1	0.01 to 0.1	O=C(NCC1(O)CCCC(F)(F)C1)c1c(Cl)ccc2nc(N3CC[C@@H](F)C3)ccc12 (stereo partly drawn) [Compound 37, 6-Chloro-2-((R)-3-fluoropyrrolidin-1-yl)-quinoline-5-carboxylic acid (3,3-difluoro-1-hydroxycyclohexylmethyl)-amide]
0.01 to 0.1		C[C@@H]1CCC[C@](O)(CNC(=O)c2c(Cl)ccc3nc(N4CC[C@@H](N(C)C)C4)ccc23)C1 [Compound 22, 6-Chloro-2-((R)-3-dimethylamino-pyrrolidin-1-yl)-quinoline-5-carboxylic acid ((1R,3R)-1-hydroxy-3-methyl-cyclohexylmethyl)-amide]
< 0.01	0.101 to 0.5	O=C(NCC1CCCC(F)(F)C1)c1c(Cl)ccc2nc(N3CC[C@H](F)C3)ccc12 (stereo partly drawn) [Compound 3, 6-Chloro-2-((S)-3-fluoropyrrolidin-1-yl)-quinoline-5-carboxylic acid (3,3-difluoro-cyclohexylmethyl)-amide]
0.01 to 0.1	0.01 to 0.1	O=C(NCC1(O)CCCCCC1)c1c(Cl)ccc2nc(N3CCCC3)ccc12 [Compound 25]
0.01 to 0.1	0.101 to 0.5	O=C(NCC1CCC(F)(F)CC1)c1c(Cl)ccc2nc(N3CC[C@@H](F)C3)ccc12 [Compound 33, 6-Chloro-2-((R)-3-fluoropyrrolidin-1-yl)-quinoline-5-carboxylic acid (4,4-difluoro-cyclohexylmethyl)-amide]
0.101 to 0.5		CCOC(=O)CCNc1ccc2c(C(=O)NCC3CCC(F)(F)CC3)c(Cl)ccc2n1 [Compound 81, 3-{6-Chloro-5-[(4,4-difluoro-cyclohexylmethyl)-carbamoyl]-quinolin-2-ylamino}-propionic acid ethyl ester]
< 0.01	0.101 to 0.5	O=C(NCC1CCC(F)(F)CC1)c1c(Cl)ccc2nc(N3CC[C@@H](CO)C3)ccc12 [Compound 12, 6-Chloro-2-((R)-3-hydroxymethyl-pyrrolidin-1-yl)-quinoline-5-carboxylic acid (4,4-difluoro-cyclohexylmethyl)-amide]
0.01 to 0.1	0.101 to 0.5	O=C(NCC1CCC(F)(F)CC1)c1c(Cl)ccc2nc(N3CCCC3)ccc12 [Compound 50]
0.01 to 0.1	0.101 to 0.5	O=C(NCC1CCC(F)(F)CC1)c1c(Cl)ccc2nc(NCCCO)ccc12 [Compound 60, 6-Chloro-2-(3-hydroxy-propylamino)-quinoline-5-carboxylic acid (4,4-difluoro-cyclo hexyl methyl)-amide]
0.01 to 0.1	0.101 to 0.5	O=C(NCC1CCC(F)(F)CC1)c1c(Cl)ccc2nc(C3CCCCC3)ccc12 [Compound 48, 6-Chloro-2-cyclohexyl-quinoline-5-carboxylic acid (4,4-difluoro-cyclohexylmethyl)-amide]
0.01 to 0.1	0.101 to 0.5	O=C(NCC1CCC(F)(F)CC1)c1c(Cl)ccc2nc(C3=CCOCC3)ccc12 [Compound 31, 6-Chloro-2-(3,6-dihydro-2H-pyran-4-yl)-quinoline-5-carboxylic acid (4,4-difluoro-cyclo hexyl methyl)-amide]
0.101 to 0.5		CN(C)C(=O)CCNc1ccc2c(C(=O)NCC3CCC(F)(F)CC3)c(Cl)ccc2n1 [Compound 82, 6-Chloro-2-(2-dimethylcarbamoyl-ethylamino)-quinoline-5-carboxylic acid (4,4-difluoro-cyclo hexyl methyl)-amide]
0.01 to 0.1		O=C(NCC1CCC(F)(F)CC1)c1c(Cl)ccc2nc(C3CCNCC3)ccc12 [Compound 53, 6-Chloro-2-piperidin-4-yl-quinoline-5-carboxylic acid (4,4-difluorocyclohexylmethyl)-amide]
0.01 to 0.1		O=C(NCC1CCC(F)(F)CC1)c1c(Cl)ccc2nc(C3CCCC3)ccc12 [Compound 43, 6-Chloro-2-cyclopentyl-quinoline-5-carboxylic acid (4,4-difluoro-cyclohexylmethyl)-amide]
< 0.01		C[C@@H]1CCC[C@](O)(CNC(=O)c2c(Cl)ccc3nc(C4CCCC4)ccc23)C1 [Compound 15, 6-Chloro-2-cyclopentyl-quinoline-5-carboxylic acid ((1R,3R)-1-hydroxy-3-methyl-cyclohexylmethyl)-amide]
< 0.01		C[C@H]1CCC[C@@](O)(CNC(=O)c2c(Cl)ccc3nc(C4CCCC4)ccc23)C1 [Compound 7, 6-Chloro-2-cyclopentyl-quinoline-5-carboxylic acid ((1S,3S)-1-hydroxy-3-methyl-cyclohexylmethyl)-amide]
0.101 to 0.5		COCCCNc1ccc2c(C(=O)NCC3CCC(F)(F)CC3)c(Cl)ccc2n1 [Compound 77, 6-Chloro-2-(3-methoxy-propylamino)-quinoline-5-carboxylic acid (4,4-difluoro-cyclohexyl methyl)-amide]
0.01 to 0.1		O=C(NCC1CCC(F)(F)CC1)c1c(Cl)ccc2nc(N3CCC(O)C3)ccc12 (stereo not shown) [Compound 57, 6-Chloro-2-(3-hydroxy-pyrrolidin-1-yl)-quinoline-5-carboxylic acid (4,4-difluoro-cyclo hexylmethyl)-amide]
0.101 to 0.5		O=C(NCC1CCC(F)(F)CC1)c1c(Cl)ccc2nc(N3CCCC(C(=O)O)C3)ccc12 (stereo not shown) [Compound 79, 1-{6-Chloro-5-[(4,4-difluoro-cyclohexylmethyl)-carbamoyl]-quinolin-2-yl}-piperidine-3-carboxylic acid]
0.01 to 0.1		O=C1C=C(c2ccc3c(C(=O)NCC4CCC(F)(F)CC4)c(Cl)ccc3n2)CC1 [Compound 72]
< 0.01		C[C@@H]1CCC[C@](O)(CNC(=O)c2c(Cl)ccc3nc(N4CCCC4)ccc23)C1 [Compound 16, 6-Chloro-2-pyrrolidin-1-yl-quinoline-5-carboxylic acid ((1R,3R)-1-hydroxy-3-methyl-cyclohexylmethyl)-amide]
0.01 to 0.1		CC(C)(C)OC(=O)N1CCC(c2ccc3c(C(=O)NCC4CCC(F)(F)CC4)c(Cl)ccc3n2)CC1 [Compound 71, 4-{6-Chloro-5-[(4,4-difluoro-cyclohexylmethyl)-carbamoyl]-quinolin-2-yl}-piperidine-1-carboxylic acid tert-butyl ester]
